Here are results for four molecules from ChEMBL document CHEMBL1201862, “PubChem BioAssay data set” (2004).

Holding throughout (test): DTP human tumour cell line panel, 48 h
Assay [1] deals with OVCAR-3.
Assay [2] deals with UACC-257.
Assay [3] deals with SNB-19.
For assay [4], the system named is CCRF-CEM.
Assay [5] has as its system M14.
Assay [6] has as its system SF-295.
Assay [7] concerns SW-620.
Assay [8] has as its system 786-0.
Assay [9] concerns SK-OV-3.
Assay [10] deals with OVCAR-5.
Assay [11] concerns NCI-H226.
Assay [12] relates to IGROV-1.
In assay [13] the test system is U-251.
For assay [14], the system named is SNB-75.
In assay [15] the test system is MCF7.
Assay [16] relates to CAKI-1.
In assay [17] the test system is NCI-H522.
The test system of assay [18] is RXF 393.
For assay [19], the system named is SF-539.

Structures are written as SMILES.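 Cells were grown in 96-well plates and exposed to each compound for 48 hours at five concentrations; endpoints were interpolated linearly between bracketing concentrations, or set to the highest concentration if not reached. Abbreviation: GI50, concentration required for 50% inhibition of growth.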 The source made the active and inactive calls. Cut-off read from the data, not from the text of the source: active = GI50 up to about 1.1 µM and inactive = higher. Some results are limits rather than exact numbers.

As to `CC1[C@@H](OCc2ccccc2)COC(=O)N1Cc1ccccc1` (some centres undefined), the GI50 in [1] is > 100 µM (inactive); in assay [2] it was 68.4 µM (inactive); in [3] it was > 100 µM (inactive); in [4] it was > 100 µM (inactive); in assay [5] it was > 100 µM (inactive); in [6], 46.2 µM (inactive). Also, the GI50 in assay [7], in assay [8], in assay [9], in assay [10], in assay [11] and in [12] was > 100 µM (inactive) throughout. The GI50 was > 100 µM (inactive) in assay [13], > 100 µM (inactive) in [14] and 81.8 µM (inactive) in [15].

For the molecule `O=C1OC(O)C(Oc2c(Cl)cccc2Cl)=C1Cl` (centres undefined), the GI50 in assay [1] is 13.5 µM (inactive); in assay [16], 18.9 µM (inactive); in assay [2], 19.5 µM (inactive); in assay [3], 27.5 µM (inactive); in assay [17], 12.5 µM (inactive); in [18] it was 11.3 µM (inactive). The GI50 was 19.9 µM (inactive) in [4]; 17 µM (inactive) in [5]; 17.5 µM (inactive) in assay [6]; 15.1 µM (inactive) in assay [7]; 17.1 µM (inactive) in [8]; 19.5 µM (inactive) in assay [9]. Besides, the GI50 in assay [10] was 19.4 µM (inactive); in assay [11], 18.4 µM (inactive); in assay [12], 17.2 µM (inactive); in assay [13], 13.8 µM (inactive); in assay [14] it was 25.6 µM (inactive); in assay [19], 17 µM (inactive).

As for `CC1(C)CC(=O)C(CC2C(=O)c3ccccc3C2=O)C(=O)C1`, the GI50 in assay [1], in [16], in assay [2], in [3], in [17] and in assay [18] was > 100 µM (inactive) throughout. In addition, the GI50 in [4], in assay [5], in assay [6], in assay [7], in assay [8] and in assay [9] was > 100 µM (inactive) throughout. The GI50 in assay [10], in [11], in assay [12], in assay [13], in assay [14] and in assay [19] was > 100 µM (inactive) each time.

`COC(=O)[C@@H]1O[C@]12C(CO[Si](C)(C)C(C)(C)C)OC(n1ccc(=O)[nH]c1=O)C2O[Si](C)(C)C(C)(C)C` (some centres undefined): the GI50 in assay [1] is 16.7 µM (inactive); in [16], 19.7 µM (inactive); in [2] it was 22.1 µM (inactive); in assay [3] it was 22.9 µM (inactive); in [17], 19.7 µM (inactive); in assay [4] it was > 100 µM (inactive). Further, the GI50 was 15.3 µM (inactive) in assay [5]; 21.8 µM (inactive) in assay [6]; 26.1 µM (inactive) in [7]; 20.6 µM (inactive) in [8]; 50.8 µM (inactive) in [9]; 25.1 µM (inactive) in assay [10]. Also, the GI50 in assay [11] is 0.435 µM (active); in assay [12], 17.7 µM (inactive); in assay [13] it was 26.2 µM (inactive); in assay [14], > 100 µM (inactive); in assay [19], 19.7 µM (inactive); in assay [15] it was 12.4 µM (inactive).

Broadly, the GI50 is the concentration giving 50% growth inhibition.
